Measured values: PubChem BioAssay (NCI)
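Each compound was tested at five concentrations against cells in 96-well plates for 48 hours. Abbreviation: GI50, concentration required for 50% inhibition of growth. TGI denotes the concentration required for complete inhibition of growth.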

What was measured:
Experiment in all cases: NCI-60 cell line screen, 48 h
786-0 renal = test system: 786-0 renal
A498 renal = test system: A498 renal
A549 NSCLC = test system: A549 NSCLC
ACHN renal = test system: ACHN renal
BT-549 breast = test system: BT-549 breast
CAKI-1 renal = test system: CAKI-1 renal
CCRF-CEM leukemia = test system: CCRF-CEM leukemia
COLO 205 colon = test system: COLO 205 colon
DU-145 prostate = test system: DU-145 prostate
EKVX NSCLC = test system: EKVX NSCLC
HCC-2998 colon = test system: HCC-2998 colon
HCT-116 colon = test system: HCT-116 colon
HCT-15 colon = test system: HCT-15 colon
HL-60(TB) leukemia = test system: HL-60(TB) leukemia
HOP-62 NSCLC = test system: HOP-62 NSCLC
HOP-92 NSCLC = test system: HOP-92 NSCLC
HS 578T breast = test system: HS 578T breast
HT29 colon = test system: HT29 colon
IGROV1 ovarian = test system: IGROV1 ovarian
K-562 leukemia = test system: K-562 leukemia
KM12 colon = test system: KM12 colon
LOX IMVI melanoma = test system: LOX IMVI melanoma
M14 melanoma = test system: M14 melanoma
MALME-3M melanoma = test system: MALME-3M melanoma
MCF7 breast = test system: MCF7 breast
MDA-MB-231 breast = test system: MDA-MB-231 breast
MDA-MB-435 = test system: MDA-MB-435
MOLT-4 leukemia = test system: MOLT-4 leukemia
NCI-H226 lung = test system: NCI-H226 lung
NCI-H23 lung = test system: NCI-H23 lung
NCI-H460 lung = test system: NCI-H460 lung
NCI-H522 lung = test system: NCI-H522 lung
NCI/ADR-RES ovarian = test system: NCI/ADR-RES ovarian
OVCAR-3 ovarian = test system: OVCAR-3 ovarian
OVCAR-4 ovarian = test system: OVCAR-4 ovarian
OVCAR-5 ovarian = test system: OVCAR-5 ovarian
OVCAR-8 ovarian = test system: OVCAR-8 ovarian
PC-3 prostate = test system: PC-3 prostate
RPMI-8226 leukemia = test system: RPMI-8226 leukemia
RXF 393 renal = test system: RXF 393 renal
SF-268 CNS = test system: SF-268 CNS
SF-295 CNS = test system: SF-295 CNS
SF-539 CNS = test system: SF-539 CNS
SK-MEL-2 melanoma = test system: SK-MEL-2 melanoma
SK-MEL-28 melanoma = test system: SK-MEL-28 melanoma
SK-MEL-5 melanoma = test system: SK-MEL-5 melanoma
SK-OV-3 ovarian = test system: SK-OV-3 ovarian
SN12C renal = test system: SN12C renal
SNB-19 CNS = test system: SNB-19 CNS
SNB-75 CNS = test system: SNB-75 CNS
SR leukemia = test system: SR leukemia
SW-620 colon = test system: SW-620 colon
T-47D breast = test system: T-47D breast
TK-10 renal = test system: TK-10 renal
U251 CNS = test system: U251 CNS
UACC-257 melanoma = test system: UACC-257 melanoma
UACC-62 melanoma = test system: UACC-62 melanoma
UO-31 renal = test system: UO-31 renal

CSc1ccc(/C(=N/N=C(N)N)c2ccc(F)cc2)cc1
GI50 (786-0 renal): 802 nM
TGI (786-0 renal): 12500 nM
GI50 (A498 renal): 390 nM
TGI (A498 renal): 2960 nM
GI50 (A549 NSCLC): 480 nM
TGI (A549 NSCLC): 10600 nM
GI50 (ACHN renal): 724 nM
TGI (ACHN renal): 10500 nM
GI50 (BT-549 breast): 5600 nM
TGI (BT-549 breast): 17100 nM
GI50 (CAKI-1 renal): 536 nM
TGI (CAKI-1 renal): 4820 nM
GI50 (CCRF-CEM leukemia): 414 nM
TGI (CCRF-CEM leukemia): 15700 nM
GI50 (COLO 205 colon): 415 nM
TGI (COLO 205 colon): 1770 nM
GI50 (DU-145 prostate): 415 nM
TGI (DU-145 prostate): 3840 nM
GI50 (EKVX NSCLC): 600 nM
TGI (EKVX NSCLC): 13300 nM
GI50 (HCC-2998 colon): 314 nM
TGI (HCC-2998 colon): 1180 nM
GI50 (HCT-116 colon): 346 nM
TGI (HCT-116 colon): 4580 nM
GI50 (HCT-15 colon): 341 nM
TGI (HCT-15 colon): 9850 nM
GI50 (HL-60(TB) leukemia): 273 nM
TGI (HL-60(TB) leukemia): 873 nM
GI50 (HOP-62 NSCLC): 755 nM
TGI (HOP-62 NSCLC): 9200 nM
GI50 (HOP-92 NSCLC): 797 nM
TGI (HOP-92 NSCLC): 6110 nM
GI50 (HS 578T breast): 872 nM
TGI (HS 578T breast): 10500 nM
GI50 (HT29 colon): 350 nM
TGI (HT29 colon): 5470 nM
GI50 (IGROV1 ovarian): 421 nM
TGI (IGROV1 ovarian): 3470 nM
GI50 (K-562 leukemia): 336 nM
TGI (K-562 leukemia): 6520 nM
GI50 (KM12 colon): 423 nM
TGI (KM12 colon): 11700 nM
GI50 (LOX IMVI melanoma): 324 nM
TGI (LOX IMVI melanoma): 1550 nM
GI50 (M14 melanoma): 308 nM
TGI (M14 melanoma): 1100 nM
GI50 (MALME-3M melanoma): 1010 nM
TGI (MALME-3M melanoma): 3250 nM
GI50 (MCF7 breast): 358 nM
TGI (MCF7 breast): 3690 nM
GI50 (MDA-MB-231 breast): 807 nM
TGI (MDA-MB-231 breast): 10000 nM
GI50 (MDA-MB-435): 230 nM
TGI (MDA-MB-435): 551 nM
GI50 (MOLT-4 leukemia): 533 nM
TGI (MOLT-4 leukemia): 10900 nM
GI50 (NCI-H226 lung): 1850 nM
TGI (NCI-H226 lung): 14700 nM
GI50 (NCI-H23 lung): 328 nM
TGI (NCI-H23 lung): 3870 nM
GI50 (NCI-H460 lung): 367 nM
TGI (NCI-H460 lung): 3400 nM
GI50 (NCI-H522 lung): 392 nM
TGI (NCI-H522 lung): 11700 nM
GI50 (NCI/ADR-RES ovarian): 1660 nM
TGI (NCI/ADR-RES ovarian): 7250 nM
GI50 (OVCAR-3 ovarian): 406 nM
TGI (OVCAR-3 ovarian): 9680 nM
GI50 (OVCAR-4 ovarian): 982 nM
TGI (OVCAR-4 ovarian): 15600 nM
GI50 (OVCAR-5 ovarian): 651 nM
TGI (OVCAR-5 ovarian): 12700 nM
GI50 (OVCAR-8 ovarian): 1290 nM
TGI (OVCAR-8 ovarian): 14900 nM
GI50 (PC-3 prostate): 466 nM
TGI (PC-3 prostate): 11400 nM
GI50 (RPMI-8226 leukemia): 468 nM
TGI (RPMI-8226 leukemia): 3160 nM
GI50 (RXF 393 renal): 189 nM
TGI (RXF 393 renal): 708 nM
GI50 (SF-268 CNS): 787 nM
TGI (SF-268 CNS): 11600 nM
GI50 (SF-295 CNS): 304 nM
TGI (SF-295 CNS): 10500 nM
GI50 (SF-539 CNS): 367 nM
TGI (SF-539 CNS): 1650 nM
GI50 (SK-MEL-2 melanoma): 2670 nM
TGI (SK-MEL-2 melanoma): 17500 nM
GI50 (SK-MEL-28 melanoma): 1410 nM
TGI (SK-MEL-28 melanoma): 11600 nM
GI50 (SK-MEL-5 melanoma): 393 nM
TGI (SK-MEL-5 melanoma): 1490 nM
GI50 (SK-OV-3 ovarian): 780 nM
TGI (SK-OV-3 ovarian): 15500 nM
GI50 (SN12C renal): 672 nM
TGI (SN12C renal): 10000 nM
GI50 (SNB-19 CNS): 424 nM
TGI (SNB-19 CNS): 12500 nM
GI50 (SNB-75 CNS): 342 nM
TGI (SNB-75 CNS): 5560 nM
GI50 (SR leukemia): 360 nM
TGI (SR leukemia): 1800 nM
GI50 (SW-620 colon): 457 nM
TGI (SW-620 colon): 9760 nM
GI50 (T-47D breast): 560 nM
TGI (T-47D breast): 11700 nM
GI50 (TK-10 renal): 2920 nM
TGI (TK-10 renal): 17200 nM
GI50 (U251 CNS): 415 nM
TGI (U251 CNS): 7130 nM
GI50 (UACC-257 melanoma): 1460 nM
TGI (UACC-257 melanoma): 11200 nM
GI50 (UACC-62 melanoma): 417 nM
TGI (UACC-62 melanoma): 7300 nM
GI50 (UO-31 renal): 856 nM
TGI (UO-31 renal): 4450 nM
